From patent publication US8022043B2, “Ceramide derivatives as modulators of immunity and autoimmunity” (Albert Einstein College of Medicine of Yeshiva University, priority 2004, dated 2011)

How the values were obtained:
NK T hybridoma DN32.D3 [1] = assay: Murine NK T cell hybridoma stimulation assay (IL-2 release), RMA-S.mCD1d as APC; type: cell-based, mouse; details: presented by RMA-S/CD1d cells
Procedure: FIG. 5. […] NK T hybridoma DN32.D3 was cultured with CD1d-transfected RMA-S cells in microtiter plate wells. Each ceramide-like glycolipid was titrated over a concentration range from 0.5-500 nM, and supernatants were harvested after 24 hours for measurement of IL-2 release. Units of activity were calculated as the reciprocal of the concentration of ceramide-like glycolipid required to give a half maximal release of IL-2, and all values were normalized to the activity of KRN7000 (defined as 1 Unit). The dotted line indicates the level of activity for KRN7000. The structures of two ceramide-like glycolipids with markedly elevated activity relative to KRN7000 are shown.
The ability of the compounds to activate NK T cell hybridomas in the presence of various types of cells expressing CD1d reported in FIG. 5A was determined using a murine NK T cell hybridoma stimulation assay. […] Relative potencies of the ceramide-like glycolipids were calculated from the reciprocal effective concentrations at half-maximal response (1/EC50), and expressed as units by normalization to the observed potency for KRN7000.
IL-2 production by NK T hybridoma DN32D3 in response to eight selected ceramide-like glycolipids, was determined using three different cell types as antigen presenting cells. […]

NK T hybridoma DN32.D3 [2] = assay: Murine NK T cell hybridoma stimulation assay (IL-2 release), HeLa.hCD1d as APC; type: cell-based, mouse
Procedure: (§1) The ability of the compounds to activate NK T cell hybridomas in the presence of various types of cells expressing CD1d reported in FIG. 5A was determined using a murine NK T cell hybridoma stimulation assay. CD1d-transfected RMA-S cells were plated at 50,000 cells/well in flat-bottom tissue culture plates in 100 microliters complete medium containing varying concentrations of ceramide-like glycolipids for 6 h at 37° C. The plates were then centrifuged (430 g, 3 min), and cells washed with PBS three times. Fifty thousand NKT hybridoma cells (clone DN3A4.1-2) were then added in 100 microliters of medium for a 12 h stimulation. Cell-free supernatants were collected at the end of incubation and assayed for IL-2 by standard capture ELISA. Relative potencies of the ceramide-like glycolipids were calculated from the reciprocal effective concentrations at half-maximal response (1/EC50), and expressed as units by normalization to the observed potency for KRN7000.
(§2) IL-2 production by NK T hybridoma DN32D3 in response to eight selected ceramide-like glycolipids, was determined using three different cell types as antigen presenting cells. RMA-S.mCD1d are a mouse lymphoma line that has been transfected to express murine CD1d. JAWS II is a mouse dendritic cell line that naturally expresses mouse CD1d. HeLa.hCD1d is a human cervical carcinoma cell line that has been transfected to express human CD1d. […]

NK T hybridoma DN32.D3 [3] = assay: Murine NK T cell hybridoma stimulation assay (IL-2 release), JAWS II as APC; type: cell-based, mouse; details: dendritic cell line JAWS-II as antigen presenting cell
Procedure: as §1, §2

iNKT cells = assay: In vitro cytokine modulation, murine cell assay system; type: cell-based; details: for in vitro activity at modulating cytokines: murine cell assay system
Text: The term iNKT cells, as used herein, mean the specific subset of CD1d-dependent T cells that expresses the invariant TCRα chain rearrangement consisting of Vα14-Jα18 in mice, and Vα24-Jα18 in humans. These cells are uniformly reactive to α-galactosylceramides presented by CD1d. These cells are also referred to as “Type 1” NKT cells, and the distinction between the different types of NKT cells and the nomenclature relating to this are summarized in the publication by Godfrey et al., Nat Rev Immunol. 2004 March; 4(3):231-7. Methods for determining cytokine production by iNKT cells in response to CD1d-presented glycolipids for determination of strong or weak agonist activity are described in Yu K O A, Im J S, Molano A, Dutronc Y, Illarionov P A, Forestier C, Fujiwara N, Arias I, Miyake S, Yamamura T, Chang Y-T, Besra G S, Porcelli S A, Modulation of CD1d-restricted NKT cell responses using N-acyl variants of α-galactosylceramides, Proc. Nat. Acad. Sci. (USA), 102:3383-8 (2005), see also Godfrey D I et al., Nat Rev Immunol. 2004 March; 4(3):231-7.

NK T cells = assay: NK T cell activation screens (Example, FIG. 5 and Table 1); type: cell-based; details: see Example
Text: Using these methods, we produced more than 60 novel amino substituted analogues of KRN7000. These were screened in a functional assay that assessed the ability of the compounds to activate NK T cell hybridomas in the presence of various types of cells expressing CD1d, or in the presence of recombinant CD1d proteins bound to the tissue culture plate surface (FIG. 5).

[4] = system: splenocytes from NZB/W F1 mice; assay: Cytokine induction in vitro with splenocytes from NZB/W F1 mice; type: cell-based
mice = details: administered in vivo to mice; cited from earlier work
[5] = system: mouse model of experimental allergic encephalomyelitis (EAE); details: compared with KRN7000; cited from earlier work
splenocyte cultures = assay: Splenocyte cultures (DB03-6); type: cell-based
[6] = system: Bulk splenocytes from C57BL/6 mice; assay: Splenocyte proliferation assay (3H-thymidine incorporation); type: cell-based; details: FIG. 5D
Procedure: The results were obtained using a splenocyte proliferation assay according to the following procedure: Bulk splenocytes from C57BL/6 mice were plated at 300,000 per well in 96-well flat-bottom tissue culture plates with the indicated ceramide-like glycolipid diluted in complete medium to the concentrations shown. After 48 h at 37° C., the plate wells were pulsed with 20 microliters of medium containing 50 microCi/ml ^3H-thymidine and incubated for a further 18 h. Cell proliferation was estimated by harvesting pulsed cells onto 96-well filtermats and scintillation counting on a 1450 Microbeta Trilux instrument (Wallac/Perkin Elmer, Boston, Mass.).

[7] = system: Bulk splenocytes from C57BL/6 mice; assay: Cytokine response of splenocyte cultures (IL-4 and IFNγ ELISA); type: cell-based; set-up: IL-4 levels compared with DB01-1: dose or concentration left out as unconfirmed; details: in vitro splenocyte cultures
C57BL/6 mice = assay: Serum IL-4 and IFNγ after a single i.p. injection; type: in vivo
Procedure: Serum levels of L-4 and IFNγ after a single injection of DB01-1, DB03-4, or DB03-5 are shown. C57BL/6 mice (11-13 weeks old) were given a single i.p. injection of 4.8 nanomoles of the compounds or phosphate buffered saline (PBS)/vehicle control. Serum cytokine levels were measured 2 and 20 hours later by capture ELISA. Bars show means of three mice, with standard deviation. Note that DB01-1 has nearly identical structure to KRN7000 (C24 fatty acid as compared to C26) and has activity that is indistinguishable from KRN7000 in multiple bioassays. We use DB01-1 as a “KRN7000 mimic” because it has been synthesized by our group and is readily available for our studies, and KRN7000 was unavailable due to license restrictions.
A most intriguing property of KRN7000 analogues is that in some cases they may elicit immune responses that are qualitatively different from those that occur following stimulation with the parent compound. […] This selective activation of IL-4 production by NK T cells was proposed to be the basis for the enhanced therapeutic effects of OCH in the EAE model of central nervous system autoimmune disease. We have observed a similar in vivo effect on the nature of the NK T cell response using several of our ceramide-like glycolipids. […] These responses are similar to those seen for DB01-1, an analogue that is structurally almost identical to KRN7000 (C24 fatty acid instead of C26, otherwise identical) and indistinguishable in terms of its activity in our hands. […] This selective IL-4 induction is virtually identical to that reported for the OCH analogue, and thus illustrates the potential for amino substituted analogues of KRN7000 to induce qualitatively different immunomodulatory effects in vivo. The results reported in FIG. 9 were obtained by measuring serum levels of IL-4 and IFNγ after administering a single injection of […], DB03-4, or DB03-5 to C57BL/6 mice. C57BL/6 mice (11-13 weeks old) were given a single i.p. injection of 4.8 nanomoles of the ceramide-like glycolipids or PBS/vehicle control. Serum cytokine levels were measured 2 and 20 hours later by capture ELISA. Bars show means of three mice, with standard deviation.
For experiments involving in vivo treatment of mice with the ceramide-like glycolipids, the ceramide-like glycolipids were administered by i.p. or i.v. injection in 0.2 ml PBS+0.025% Tween-20, or in vehicle alone. A typical dose is about 4-5 nmoles per animal per injection. Representative references for administering an α-galactosyl ceramide to mice by i.p., i.v. or p.o. routes are S. Sharif et al., Activation of natural killer T cells by alpha-galactosylceramide treatment prevents the onset and recurrence of autoimmune Type 1 diabetes, Nat. Med., Sep. 7, 2001, (9):1057-62 and K. Miyamoto et al., A synthetic glycolipid prevents autoimmune encephalomyelitis by inducing TH2 bias of natural killer T cells, Nature. Oct. 4, 2001, 413(6855):5314.

NOD mice = assay: Prevention of type 1 diabetes in NOD mice; type: in vivo; details: i.p. once per week, 200 micrograms/kg; comparator DB01-1 (indicated as KRN7000)
Procedure: Cohorts of 6-8 female NOD mice were treated with placebo (vehicle) or DB01-1 (indicated as KRN7000), DB03-4 or DB03-5 injections once weekly beginning at 4-5 weeks of age. Treatment was discontinued after 5 injections (DB03-4) or 7 injections (DB03-5). Top graphs show incidence of glycosuria, and bottom graphs show survival in each cohort.
Given the widely held belief that selective augmentation of IL-4 production can be protective or therapeutic in the setting of many autoimmune diseases, we have initiated studies to examine the efficacy of compounds such as DB03-4 and DB03-5 in diabetes prone NOD mice. […] The results reported in FIG. 10 were obtained by treating three groups, each consisting of 9-12 female NOD mice, starting from age 5 weeks with a ceramide-like glycolipid. The indicated ceramide-like glycolipids (DB03-4, DB03-5, or KRN7000) were injected i.p. once per week in a dose of 200 micrograms/kg. Treatment was discontinued at 11 weeks of age, and the mice were monitored weekly for glucosuria (top) and death (bottom).
For experiments involving in vivo treatment of mice with the ceramide-like glycolipids, the ceramide-like glycolipids were administered by i.p. or i.v. injection in 0.2 ml PBS+0.025% Tween-20, or in vehicle alone. A typical dose is about 4-5 nmoles per animal per injection. […]

human NKT cell clones = assay: Human in vitro NKT cell assay system; type: cell-based; details: proliferative responses and cytokine secretion
Text: For example, DB03-4 and DB03-5 are active in stimulation of human NKT cell clones in vitro, and elicits proliferative responses and cytokine secretion when evaluated using culture systems previously established in the literature (See, e.g., Spada F M, Sugita M, Watts G F M, Koezuka Y, and Porcelli S A. Low expression but potent antigen presenting function of CD1d on monocyte lineage cells, Eur. J. Immunol., 30:3468-3477 (2000), and Spada F M, Koezuka Y, Porcelli S A, CD1d-restricted recognition of synthetic glycolipid antigens by human NK T cells. J Exp Med; 188:1529-1534 (1998), see also, Lee P T et al., J Clin Invest., 2002 September; 110(6):793-800. […] Acad. Sci. (USA), 102:3383-8 (2005)).

[8] = system: T cell antigen receptors of human NKT cells; assay: Glycolipid human CD1d tetramer binding; details: normal blood specimens

CCCCCCCCCCCCCC[C@@H](O)[C@@H](O)[C@H](COC1OC(CO)C(O)C(O)C1O)NC(=O)C(c1ccccc1)c1ccccc1 (stereo partly shown) [YTC03-17]
potency relative to KRN7000 (IL-2 production) (NK T hybridoma DN32.D3 [1]): markedly more potent than KRN7000 | potency relative to KRN7000 (IL-2 production) (NK T hybridoma DN32.D3 [2]; presented by HeLa (human CD1d) cells): presented about equally | response (IL-2 production) (NK T hybridoma DN32.D3 [3]): very little or no response at all | agonist activity on iNKT cells (iNKT cells; in vitro): strong agonist activity | in vitro activity at modulating cytokines (iNKT cells): show in vitro activity | effectiveness of compound (NK T cells): Particularly effective

CCCCCCCCCCCCCC[C@@H](O)[C@@H](O)[C@H](COC1OC(CO)C(O)C(O)C1O)NC(=O)CCCCCC (stereo partly shown) [YTC03-25]
IL-4 induction relative to IFNγ [4]: enhanced IL-4 induction relative to IFNγ | effectiveness of compound (NK T cells): Particularly effective

CCCCCCCCCCCCCCCCCCCCCCCC(=O)N[C@@H](COC1OC(CO)C(O)C(O)C1O)[C@H](O)[C@H](O)CCCCC (stereo partly shown) [OCH]
IFNγ production in vivo (mice): failed to stimulate the strong production of interferon-γ | IL-4 production in vivo (mice): selective production of interleukin-4 | suppression of autoimmunity in EAE [5]: enhanced ability to suppress autoimmunity

CC/C=C\C/C=C\C/C=C\C/C=C\C/C=C\CCCC(=O)N[C@@H](COC1OC(CO)C(O)C(O)C1O)[C@H](O)[C@H](O)CCCCCCCCCCCCCC (stereo partly shown) [DB03-6]
IL-2 induction (splenocyte cultures): minimal IL-2 induction | IL-4 relative to IFNγ (splenocyte cultures): apparent enhancement of IL-4 relative to IFNγ | agonist activity (splenocyte cultures): agonist

CCCCCCCCCCCCCC[C@@H](O)[C@@H](O)[C@H](COC1OC(CO)C(O)C(O)C1O)NC(=O)Cc1ccc(OC)c(OC)c1 (stereo partly shown) [YTC03-24]
IL-4 induction relative to IFNγ [4]: enhanced IL-4 induction relative to IFNγ

CCCCCCCCCCCCCCCCCCCCCCCC(=O)N[C@@H](COC1OC(CO)C(O)C(O)C1O)[C@H](O)[C@H](O)CCCCCCCCCCCCCC (stereo partly shown) [DB02-1]
CD1d-dependent proliferation [6]: stimulation of CD1d-dependent proliferation | IL-4 levels compared with DB01-1 [7]: nearly equivalent | IFNγ levels compared with DB01-1 ([7]; all concentrations): markedly lower

CCCCC/C=C\C/C=C\C/C=C\C/C=C\CCCC(=O)N[C@@H](COC1OC(CO)C(O)C(O)C1O)[C@H](O)[C@H](O)CCCCCCCCCCCCCC (stereo partly shown) [DB03-5]
serum IFNγ response (C57BL/6 mice; 20 hours after single i.p. injection of 4.8 nanomoles): not seen | serum IL-4 response (C57BL/6 mice; two hours after single i.p. injection of 4.8 nanomoles): strong IL-4 response | prevention of diabetes in NOD mice compared with KRN7000 (NOD mice): superior to KRN7000 | cytokine bias (iNKT cells): bias towards inducing Type 2 cytokines | IL-4 induction (iNKT cells; in vitro): strong inducers of IL-4 | IFNγ induction (iNKT cells; in vitro, DB03-3: in some murine strains): blunted IFNγ | in vitro activity at modulating cytokines (iNKT cells): show in vitro activity | stimulation of human NKT cell clones (human NKT cell clones): active | binding of glycolipid human CD1d tetramers to human NKT cells [8]: bind strongly

CCCCCCCCCCCCCC[C@@H](O)[C@@H](O)[C@H](COC1OC(CO)C(O)C(O)C1O)NC(=O)Cc1ccc(F)cc1 (stereo partly shown) [YTC03-30]
potency greater than KRN7000 (NK T hybridoma DN32.D3 [2]; presented by HeLa cells): at least 100 fold
